Laboratory results reported in ChEMBL document CHEMBL3217532, “New analyses of MIC90 data to aid antibacterial drug discovery” (2011).
Converted amounts (≈) assume the structure as drawn.

Tests used:
Assay type in all cases: functional
[1] = test system: Pseudomonas aeruginosa; experiment: Antimicrobial activity against Pseudomonas aeruginosa 1526-08
[2] = test system: Pseudomonas aeruginosa; experiment: Antimicrobial activity against Pseudomonas aeruginosa 1615-09
[3] = test system: Pseudomonas aeruginosa; experiment: Antimicrobial activity against Pseudomonas aeruginosa 1565-05
[4] = test system: Pseudomonas aeruginosa; experiment: Antimicrobial activity against Pseudomonas aeruginosa 1753-00
[5] = test system: Pseudomonas aeruginosa; experiment: Antimicrobial activity against Pseudomonas aeruginosa 1561-05
[6] = test system: Pseudomonas aeruginosa; experiment: Antimicrobial activity against Pseudomonas aeruginosa 1955-00
[7] = test system: Pseudomonas aeruginosa; experiment: Antimicrobial activity against Pseudomonas aeruginosa PA-4624
[8] = test system: Pseudomonas aeruginosa; experiment: Antimicrobial activity against Pseudomonas aeruginosa 1514-08
[9] = test system: Pseudomonas aeruginosa; experiment: Antimicrobial activity against Pseudomonas aeruginosa PA-4995
[10] = test system: Pseudomonas aeruginosa; experiment: Antimicrobial activity against Pseudomonas aeruginosa PA-4997
[11] = test system: Pseudomonas aeruginosa; experiment: Antimicrobial activity against Pseudomonas aeruginosa 1510-08
[12] = test system: Pseudomonas aeruginosa; experiment: Antimicrobial activity against Pseudomonas aeruginosa 1764-00
[13] = test system: Pseudomonas aeruginosa; experiment: Antimicrobial activity against Pseudomonas aeruginosa 1566-05
[14] = test system: Pseudomonas aeruginosa; experiment: Antimicrobial activity against Pseudomonas aeruginosa PA-4990
[15] = test system: Pseudomonas aeruginosa; experiment: Antimicrobial activity against Pseudomonas aeruginosa 1509-08
[16] = test system: Pseudomonas aeruginosa; experiment: Antimicrobial activity against Pseudomonas aeruginosa 1523-08
[17] = test system: Pseudomonas aeruginosa; experiment: Antimicrobial activity against Pseudomonas aeruginosa 1527-08
[18] = test system: Pseudomonas aeruginosa; experiment: Antimicrobial activity against Pseudomonas aeruginosa 1515-08
[19] = test system: Pseudomonas aeruginosa; experiment: Antimicrobial activity against Pseudomonas aeruginosa 1768-00
[20] = test system: Pseudomonas aeruginosa; experiment: Antimicrobial activity against Pseudomonas aeruginosa 1957-00
[21] = test system: Pseudomonas aeruginosa; experiment: Antimicrobial activity against Pseudomonas aeruginosa 1613-09
[22] = test system: Pseudomonas aeruginosa; experiment: Antimicrobial activity against Pseudomonas aeruginosa 1954-00
[23] = test system: Pseudomonas aeruginosa; experiment: Antimicrobial activity against Pseudomonas aeruginosa PA-4999
[24] = test system: Pseudomonas aeruginosa; experiment: Antimicrobial activity against Pseudomonas aeruginosa 1513-08
[25] = test system: Pseudomonas aeruginosa; experiment: Antimicrobial activity against Pseudomonas aeruginosa 1521-08
[26] = test system: Pseudomonas aeruginosa; experiment: Antimicrobial activity against Pseudomonas aeruginosa 1752-00
[27] = test system: Pseudomonas aeruginosa; experiment: Antimicrobial activity against Pseudomonas aeruginosa PA-1757
[28] = test system: Pseudomonas aeruginosa; experiment: Antimicrobial activity against Pseudomonas aeruginosa 1953-00
[29] = test system: Pseudomonas aeruginosa; experiment: Antimicrobial activity against Pseudomonas aeruginosa 1614-09
[30] = test system: Pseudomonas aeruginosa; experiment: Antimicrobial activity against Pseudomonas aeruginosa PA-4991
[31] = test system: Pseudomonas aeruginosa; experiment: Antimicrobial activity against Pseudomonas aeruginosa 1766-00
[32] = test system: Pseudomonas aeruginosa; experiment: Antimicrobial activity against Pseudomonas aeruginosa 1567-05
[33] = test system: Pseudomonas aeruginosa; experiment: Antimicrobial activity against Pseudomonas aeruginosa 1612-09
[34] = test system: Pseudomonas aeruginosa; experiment: Antimicrobial activity against Pseudomonas aeruginosa 1767-00
[35] = test system: Pseudomonas aeruginosa; experiment: Antimicrobial activity against Pseudomonas aeruginosa 1563-00
[36] = test system: Pseudomonas aeruginosa; experiment: Antimicrobial activity against Pseudomonas aeruginosa 1569-05
[37] = test system: Pseudomonas aeruginosa; experiment: Antimicrobial activity against Pseudomonas aeruginosa 1761-00
[38] = test system: Pseudomonas aeruginosa; experiment: Antimicrobial activity against Pseudomonas aeruginosa 1619-08
[39] = test system: Pseudomonas aeruginosa; experiment: Antimicrobial activity against Pseudomonas aeruginosa 1765-00
[40] = test system: Pseudomonas aeruginosa; experiment: Antimicrobial activity against Pseudomonas aeruginosa 1951-00
[41] = test system: Pseudomonas aeruginosa; experiment: Antimicrobial activity against Pseudomonas aeruginosa 1512-08
[42] = test system: Pseudomonas aeruginosa; experiment: Antimicrobial activity against Pseudomonas aeruginosa 1760-00
[43] = test system: Pseudomonas aeruginosa; experiment: Antimicrobial activity against Pseudomonas aeruginosa 1570-05
[44] = test system: Pseudomonas aeruginosa; experiment: Antimicrobial activity against Pseudomonas aeruginosa 1564-05
[45] = test system: Pseudomonas aeruginosa; experiment: Antimicrobial activity against Pseudomonas aeruginosa 1562-05
[46] = test system: Pseudomonas aeruginosa; experiment: Antimicrobial activity against Pseudomonas aeruginosa 1956-00
[47] = test system: Pseudomonas aeruginosa; experiment: Antimicrobial activity against Pseudomonas aeruginosa 1952-00
[48] = test system: Pseudomonas aeruginosa; experiment: Antimicrobial activity against Pseudomonas aeruginosa PA-75
[49] = test system: Pseudomonas aeruginosa; experiment: Antimicrobial activity against Pseudomonas aeruginosa PA-4993
[50] = test system: Pseudomonas aeruginosa; experiment: Antimicrobial activity against Pseudomonas aeruginosa 1568-05
[51] = test system: Pseudomonas aeruginosa; experiment: Antimicrobial activity against Pseudomonas aeruginosa 1611-09

`C[C@@H](O)[C@H]1C(=O)N2C(C(=O)O)=C(S[C@@H]3CN[C@H](C(=O)N(C)C)C3)[C@H](C)[C@H]12` [MEROPENEM] showed an MIC90 [1] greater than 64 µg/mL, an MIC90 [2] of 2 µg/mL (≈ 5.22 µM) and an MIC90 [3] of 0.5 µg/mL (≈ 1.3 µM). The MIC90 [4] was 0.125 µg/mL (≈ 0.326 µM), the MIC90 [5] was 2 µg/mL (≈ 5.22 µM) and the MIC90 [6] was 1 µg/mL (≈ 2.61 µM). It also gave an MIC90 [7] of 0.25 µg/mL (≈ 0.652 µM), an MIC90 [8] greater than 64 µg/mL and an MIC90 [9] of 16 µg/mL (≈ 41.7 µM). The MIC90 [10] was 64 µg/mL (≈ 167 µM), the MIC90 [11] was greater than 64 µg/mL and the MIC90 [12] was 2 µg/mL (≈ 5.22 µM). For the same compound, the MIC90 [13] was 0.5 µg/mL (≈ 1.3 µM), the MIC90 [14] was 32 µg/mL (≈ 83.4 µM) and the MIC90 [15] was greater than 64 µg/mL. For the same compound, the MIC90 [16] was 64 µg/mL (≈ 167 µM), the MIC90 [17] was 8 µg/mL (≈ 20.9 µM) and the MIC90 [18] was 32 µg/mL (≈ 83.4 µM). The MIC90 [19] was 0.5 µg/mL (≈ 1.3 µM), the MIC90 [20] was 0.125 µg/mL (≈ 0.326 µM) and the MIC90 [21] was 0.25 µg/mL (≈ 0.652 µM). It also gave an MIC90 [22] of 0.25 µg/mL (≈ 0.652 µM), an MIC90 [23] of 8 µg/mL (≈ 20.9 µM) and an MIC90 [24] of 32 µg/mL (≈ 83.4 µM). For the same compound, the MIC90 [25] was greater than 64 µg/mL, the MIC90 [26] was 0.125 µg/mL (≈ 0.326 µM) and the MIC90 [27] was 4 µg/mL (≈ 10.4 µM). It also gave an MIC90 [28] of 2 µg/mL (≈ 5.22 µM), an MIC90 [29] of 4 µg/mL (≈ 10.4 µM) and an MIC90 [30] of 8 µg/mL (≈ 20.9 µM). The MIC90 [31] was 2 µg/mL (≈ 5.22 µM), the MIC90 [32] was 0.5 µg/mL (≈ 1.3 µM) and the MIC90 [33] was 16 µg/mL (≈ 41.7 µM). The MIC90 [34] was 0.5 µg/mL (≈ 1.3 µM), the MIC90 [35] was 2 µg/mL (≈ 5.22 µM) and the MIC90 [36] was 0.25 µg/mL (≈ 0.652 µM). The MIC90 [37] was 2 µg/mL (≈ 5.22 µM), the MIC90 [38] was 4 µg/mL (≈ 10.4 µM) and the MIC90 [39] was 2 µg/mL (≈ 5.22 µM). It also gave an MIC90 [40] of 0.06 µg/mL (≈ 0.156 µM), an MIC90 [41] greater than 64 µg/mL and an MIC90 [42] of 4 µg/mL (≈ 10.4 µM). It also gave an MIC90 [43] of 0.25 µg/mL (≈ 0.652 µM), an MIC90 [44] of 2 µg/mL (≈ 5.22 µM) and an MIC90 [45] of 4 µg/mL (≈ 10.4 µM). It also gave an MIC90 [46] of 0.5 µg/mL (≈ 1.3 µM), an MIC90 [47] of 2 µg/mL (≈ 5.22 µM) and an MIC90 [48] of 0.5 µg/mL (≈ 1.3 µM). For the same compound, the MIC90 [49] was greater than 64 µg/mL, the MIC90 [50] was 0.5 µg/mL (≈ 1.3 µM) and the MIC90 [51] was 4 µg/mL (≈ 10.4 µM).
